We go through 59 compounds from the OPERA property sets (Mansouri et al. 2018).

SMILES strings stand for the structures. Values after ≈ are worked out from the molar mass of the structure shown.

Conditions in the first data set: not given
By solubility is commonly meant the concentration that dissolves in the medium under given conditions. A higher solubility goes with a readily soluble substance. `O=C(OCCOc1ccc(Cl)cc1Cl)c1ccccc1` yielded a solubility of 0.154 mM (≈ 48 µg/mL).

In turn, `Cc1[nH]c(=O)n(C(C)C)c(=O)c1Br` came in with a solubility of 8.7 mM (≈ 2150 µg/mL).

As to `C=C1C[C@]23C[C@@]1(O)CC[C@H]2[C@@]12C=C[C@H](O)[C@@](C)(C(=O)O1)[C@H]2[C@@H]3C(=O)O`, the solubility amounted to 14.4 mM (≈ 5000 µg/mL).

On to `O=C[C@@H]1C[C@@H]2[C@@H]3[C@H]1[C@@]1(Cl)C(Cl)(Cl)[C@]3(Cl)[C@@]3(Cl)[C@@H]2[C@]31Cl`, for which the solubility turned out to be 6.3e-05 mM (≈ 0.024 µg/mL).

Still in this data set, the particulars now being: 20 °C.
As to `C1CNCCN1.Cl.Cl`, the solubility came to 2580 mM.

In turn, `C=CCN(CC=C)C(=O)C(Cl)Cl` registered a solubility of 24 mM (≈ 5000 µg/mL).

Take `CC(C)OP(=O)(OC(C)C)SCc1ccccc1`: the solubility is 1.39 mM (≈ 400 µg/mL).

In turn, `O=S1(=O)OCC2C(CO1)C1(Cl)C(Cl)=C(Cl)C2(Cl)C1(Cl)Cl` (centres undefined) had a solubility of 0.00114 mM (≈ 0.48 µg/mL).

As to `CCCOC/C(=N\c1ccc(Cl)cc1C(F)(F)F)n1ccnc1`, the solubility was found to be 36.1 mM (≈ 12500 µg/mL).

The compound `CN(C)C(O)=Nc1ccc(-n2nc(C(C)(C)C)oc2=O)c(Cl)c1` yielded a solubility of 0.0472 mM (≈ 16 µg/mL).

The compound `CCOC(=O)Nc1cccc(OC(=O)Nc2ccccc2)c1` showed a solubility of 0.0233 mM (≈ 7 µg/mL).

With `CNC(=O)N(C)c1nnc(C(F)(F)F)s1`, the solubility came out at 8.74 mM (≈ 2100 µg/mL).

As for `CCOC(=O)NCCOc1ccc(Oc2ccccc2)cc1`, the solubility was 0.0199 mM (≈ 6 µg/mL).

Compound `CCC1COC(Cn2cncn2)(c2ccc(Cl)cc2Cl)O1` (centres undefined) registered a solubility of 0.244 mM (≈ 80 µg/mL).

Compound `O=CNC(Nc1ccc(Cl)c(Cl)c1)C(Cl)(Cl)Cl` (centres undefined) gave a solubility of 0.476 mM (≈ 160 µg/mL).

Compound `CN(C(=O)COc1nc2ccccc2s1)c1ccccc1` came in with a solubility of 0.0134 mM (≈ 4 µg/mL).

The compound `O=C1CCc2cccc3c2N1CC3` came in with a solubility of 23.1 mM (≈ 4000 µg/mL).

The compound `Cc1cc(N(C)C)nc(Cl)n1` gave a solubility of 54.8 mM (≈ 9400 µg/mL).

As to `O=C(O)Cc1c[nH]c2ccccc12`, the solubility amounted to 8.56 mM (≈ 1500 µg/mL).

As for `CNC(=O)Oc1ccccc1C1OCCO1`, the solubility worked out at 26.9 mM (≈ 6000 µg/mL).

For the compound `CNC(=S)[S-].[Na+]`, the solubility was found to be 5590 mM.

In turn, `COP(=S)(OC)Oc1ccc(Sc2ccc(OP(=S)(OC)OC)cc2)cc1` had a solubility of 0.000579 mM (≈ 0.27 µg/mL).

`C#CC(C)N(C(=O)CCl)c1ccccc1` (centres undefined) yielded a solubility of 2.26 mM (≈ 500 µg/mL).

In the case of `CC(Cl)(Cl)[N+](=O)[O-]`, the solubility amounted to 17.4 mM (≈ 2500 µg/mL).

Turning to `[Br-].[Br-].c1cc[n+]2c(c1)-c1cccc[n+]1CC2`, the solubility came to 2060 mM.

On to `Cc1ccc(NC(=O)N(C)C)cc1Cl`, for which the solubility was found to be 0.329 mM (≈ 70 µg/mL).

Consider `COP(=S)(OC)SCC(=O)N(c1ccc(Cl)cc1)C(C)C`, for which the solubility came to 0.037 mM (≈ 13.6 µg/mL).

The compound `N#C/C(=N\OCC1OCCO1)c1ccccc1` came in with a solubility of 0.0861 mM (≈ 20 µg/mL).

As to `O=[N+]([O-])c1ccc(O/N=C/c2cc(Br)c(O)c(Br)c2)c([N+](=O)[O-])c1`, the solubility turned out to be 0.000217 mM (≈ 0.1 µg/mL).

Take `CCSCCSP(=O)(OC)OC`: the solubility was 14.3 mM (≈ 3300 µg/mL).

For `CN(C)C(=O)SCCCCOc1ccccc1`, the solubility was found to be 0.118 mM (≈ 30 µg/mL).

The same data set, now with this note: 22 °C.
In turn, `CCSC(=O)N(CC)C1CCCCC1` gave a solubility of 0.395 mM (≈ 85 µg/mL).

The data set is the same for the next values; noted with them: 23 °C.
`COC(=O)C(C)N(C(=O)c1ccccc1)c1ccc(F)c(Cl)c1` (centres undefined): the solubility was determined as 0.0857 mM (≈ 28.8 µg/mL).

Staying with this data set, now noted: 25 °C.
The compound `FC(F)(F)c1nc2c(Cl)c(Cl)ccc2[nH]1` returned a solubility of 0.271 mM (≈ 69 µg/mL).

With `CC(O)COCc1c(Cl)ccc(Cl)c1Cl` (centres undefined), the solubility is 0.271 mM (≈ 73 µg/mL).

For the compound `CNC(=O)Oc1c(C(C)(C)C)cc(C)cc1C(C)(C)C`, the solubility came out at 0.0252 mM (≈ 7 µg/mL).

`CCOP(=S)(OCC)SCSP(=S)(OCC)OCC`: the solubility amounted to 0.0052 mM (≈ 2 µg/mL).

For `CNP(=O)(OC)Oc1ccc(C(C)(C)C)cc1Cl` (centres undefined), the solubility was found to be 0.686 mM (≈ 200 µg/mL).

The compound `CC(C)=CCl` gave a solubility of 11 mM (≈ 1000 µg/mL).

Turning to `Cc1nc(C)c(Cl)c(O)c1Cl`, the solubility amounted to 0.0521 mM (≈ 10 µg/mL).

Compound `CN(C)C(=O)Nc1cc(C(C)(C)C)on1` gave a solubility of 3.74 mM (≈ 790 µg/mL).

Turning to `Cc1ccc(/N=C/N(C)/C=N/c2ccc(C)cc2C)c(C)c1`, the solubility came out at 0.00341 mM (≈ 1 µg/mL).

With `COP(=S)(OC)Oc1ccc([N+](=O)[O-])c(C)c1`, the solubility worked out at 0.137 mM (≈ 38 µg/mL).

Turning to `O=C(O)COc1nc(Cl)c(Cl)cc1Cl`, the solubility was 1.72 mM (≈ 440 µg/mL).

In turn, `COC(=O)C1(O)c2ccccc2-c2ccc(Cl)cc21` (centres undefined) returned a solubility of 0.0655 mM (≈ 18 µg/mL).

On to `O=C(O)COc1cc(Cl)cc(Cl)c1`, for which the solubility came out at 4.35 mM (≈ 961 µg/mL).

As to `CCCCS/C(=N\c1cccnc1)SCc1ccc(C(C)(C)C)cc1`, the solubility came to 0.00268 mM (≈ 1 µg/mL).

Take `C=C(CC(Cl)(Cl)Cl)c1ccccc1`: the solubility turned out to be 0.0522 mM (≈ 12.3 µg/mL).

Consider `O=C(O)c1cc(Cl)c(Cl)cc1Cl`, for which the solubility was found to be 3.59 mM (≈ 810 µg/mL).

Turning to `CCOC(=O)CN(C(=O)CCl)c1c(CC)cccc1CC`, the solubility was determined as 0.337 mM (≈ 105 µg/mL).

`CCCCc1c(C)nc(NCC)nc1OS(=O)(=O)N(C)C` gave a solubility of 0.0695 mM (≈ 22 µg/mL).

In the case of `CCSC(=O)N(CC)CC`, the solubility came to 20.3 mM (≈ 3280 µg/mL).

As for `COC(=O)C(C)Oc1ccc(Oc2ncc(C(F)(F)F)cc2Cl)cc1` (centres undefined), the solubility was determined as 0.0248 mM (≈ 9.3 µg/mL).

Turning to `CCN(CC)C(=O)CCl`, the solubility was found to be 571 mM (≈ 85500 µg/mL).

Staying with this data set, now noted: 26 °C.
In the case of `CCNc1nc(OC)nc(N(CC)CC)n1`, the solubility is 1 mM (≈ 226 µg/mL).

Staying with this data set, now noted: 30 °C.
Regarding `CCC(C)N(C(=O)SCc1ccccc1)C(C)CC` (centres undefined), the solubility was determined as 0.00895 mM (≈ 2.5 µg/mL).

In turn, `CN1C(=O)[C@]23CC4=CC=C[C@H](O)[C@H]4N2C(=O)[C@@]1(CO)SS3` returned a solubility of 0.214 mM (≈ 70 µg/mL).

Staying with this data set, now noted: pH 3.0; 26 °C.
Regarding `CCN(CC)c1nc(NC(C)C)nc(OC)n1`, the solubility was 0.0129 mM (≈ 3.09 µg/mL).

Still in this data set, the particulars now being: pH 7.0; 25 °C.
For the compound `Cn1cc(-c2ccccc2)c(=O)c(-c2cccc(C(F)(F)F)c2)c1`, the solubility was found to be 0.0364 mM (≈ 12 µg/mL).
